Values after ≈ are worked out from the molar mass of the structure shown. Where a SMILES comes first, the peptide text is derived from it. Bridges are numbered along the chain shown (N, C = ends).
How the values were obtained:
U87 glioblastoma cells [1] = test: Cell viability (MTT), U87; type: cell-based, human; details: 25–200 μg/mL, 24 h, 10,000 cells per well, n = 3
Source text: (§1) The ATCC (American Type Culture Collection, Rockville, MD, United States) cancer cell lines U87 (glioblastoma), MDA-MB231 (breast cancer) and LS174 (colon adenocarcinoma) were routinely cultured in DMEM supplemented with 10% fœtal bovine serum (FBS), 1% l-glutamine and 100 IU/mL penicillin/streptomycin. […] Rat SK2 cDNA cloned into pJA5 plasmid was a gift from Dr. Skolnik (university Langone Medical center, New York). Human SK3 cDNA cloned into Pipru vector was a king gift from Pr. Soriani (Université Côte d’Azur, CNRS, Inserm, Nice, France).
(§2) The human cell lines U87, MDA-MB231, or LS174 (10,000 cells per well) were treated with P01 peptide at different concentrations (25; 50; 100 and 200 μg/mL). After 24 h, the wells were washed with phosphate-buffered saline (PBS) and then the 3-(4,5-dimethylthiazol-2-yl)-2,5-diphenyltetrazolium bromide (MTT) (0.5 mg/mL) was added to the cells as previously described ([Kouba et al., 2020]). The crystals formed after the reduction of MTT by mitochondrial dehydrogenases were dissolved with dimethylsulfoxyde (DMSO). The quantification of live cells was achieved by measuring absorbance at 560 nm using a spectrophotometer (Thermo-Multiskan EX, Shanghai, China).

[2] = test system: MDA-MB231 breast cancer cells; test: Cell viability (MTT), MDA-MB231; type: cell-based, human; details: 25–200 μg/mL, 24 h, 10,000 cells per well, n = 3
Source text: as §1, §2

[3] = test system: LS174 colon adenocarcinoma cells; test: Cell viability (MTT), LS174; type: cell-based, human; details: 25–200 μg/mL, 24 h, 10,000 cells per well, n = 3
Source text: as §1, §2

[4] = test system: LS174 colon adenocarcinoma cells; test: Cell proliferation test (crystal violet), LS174; type: cell-based, human; details: 2–10 μg/mL, 72 h, n = 3
Source text: as §1
The effect of the P01 peptide on cell proliferation was studied. The human cell lines U87, MDA-MB231 or LS174 (5,000 cells per well) were treated with 2; 5 and 10 μg/mL of P01 peptide. The plates were placed at 37°C for 72 h. Cellular proliferation was quantified at 560 nm by a spectrophotometer (Thermo-Multiskan EX, Shanghai, China) after treatment with 1% glutaraldehyde and staining with 0.1% crystal violet.
Every 24 h, a series of wells was washed with PBS, the cells were fixed with 1% glutaraldehyde, and preserved in PBS to follow the kinetics of proliferation. After 72 h, the cells were stained with crystal violet 0.1% and quantified by measuring the absorbance at 560 nm using a spectrophotometer (Thermo-Multiskan EX, Shanghai, China).

U87 glioblastoma cells [5] = test: Cell migration assay (modified Boyden chamber), U87; type: cell-based, human
Source text: as §1
(§3) Cell migration assay was performed using modified Boyden chamber (NeuroProbe Inc., Bethesda, MD, United States) as previously described ([Sarray et al., 2007]). Membranes were coated with fibrinogen (Fg) (50 μg/mL), fibronectin (Fn) (10 μg/mL), collagen type I (Coll-I) (50 μg/mL) for U87, MDA-MB231 and LS174 cells respectively, for 2 h at 37°C. Cells were harvested as a single cell suspension (10^6 cells/mL) and treated with P01 at 50 μg/mL. Then added to pre-coated membranes and allowed to migrate for 5 h at 37°C in Boyden chamber. Cells were fixed on the underside of the membrane, stained by 0.1% crystal violet and migration was quantified by measuring the absorbance at 560 nm using a spectrophotometer (Thermo-Multiskan EX, Shanghai, China).

[6] = test system: MDA-MB231 breast cancer cells; test: Cell migration assay (modified Boyden chamber), MDA-MB231; type: cell-based, human; details: 50 μg/mL, 5 h, fibronectin 10 μg/mL coating, n = 3
Source text: as §1, §3

[7] = test system: LS174 colon adenocarcinoma cells; test: Cell migration assay (modified Boyden chamber), LS174; type: cell-based, human; details: 50 μg/mL, 5 h, collagen type I 50 μg/mL coating, n = 3
Source text: as §1, §3

[8] = test system: MDA-MB231 breast cancer cells; test: Cell adhesion assay, MDA-MB231; type: cell-based, human; details: data not shown
Source text: as §1
(§4) Adhesion assays were performed as previously described by ([Sarray et al., 2007]). Glioblastoma U87 cells in suspension (10^6 cells/mL) were treated with 50 μg/mL of P01 and deposited on wells coated with purified extracellular matrix (ECM): Fg at 50 μg/mL; Fn at 10 μg/mL; Coll-I at 50 μg/mL; laminin (Lam) at 15 μg/mL or poly-L-lysine (PL) at 20 μg/mL for U87. MDA-MB231 and LS174 cells were also used in their adequate ECM: Fg and Coll-I respectively. They were incubated to adhere to the substrate for 2 h or 24 h at 37°C. After washing, attached cells were fixed, stained by 0.1% crystal violet, lysed with 1% SDS and quantified by measuring absorbance at 560 nm. The specific adhesion is obtained by subtracting the absorbance obtained in the absence of adhesion substrate (no specific control). […]

[9] = test system: LS174 colon adenocarcinoma cells; test: Cell adhesion assay, LS174; type: cell-based, human; details: data not shown
Source text: as §1, §4

αvβ3 integrin = test: U87 cell adhesion in presence of anti-integrin antibodies, αvβ3; type: cell-based, human; details: 50 μg/mL P01, 30 min pre-incubation, 2 h at 37°C, anti-αvβ3 (1/200), n = 3
Procedure: (§5) To study the implication of integrins in the P01 peptide activity, adhesion assays using anti-integrin blocking antibodies: anti- α1β1 (1/200), anti- αvβ3 (1/200), anti- α5 (1/200) and anti- β3 (1/200) were performed as described above, except that cells were pretreated with the active peptide P01 at 50 μg/mL.

α5 integrin = test: U87 cell adhesion in presence of anti-integrin antibodies, α5; type: cell-based, human; details: 50 μg/mL P01, 30 min pre-incubation, 2 h at 37°C, anti-α5 (1/200), n = 3
Procedure: as §5

β3 integrin = test: U87 cell adhesion in presence of anti-integrin antibodies, β3; type: cell-based, human; details: 50 μg/mL P01, 30 min pre-incubation, 2 h at 37°C, anti-β3 (1/200), n = 3
Procedure: as §5

SK2 channel = details: Jurkat cells; ref Shakkottai et al., 2001; cited from earlier work
Source text: (§6) This can be explained by the differential expression of either functional SK2 isoforms or other membrane receptors between HEK293 and Jurkat cells.

SK3 channel = details: Jurkat cells; ref Shakkottai et al., 2001; cited from earlier work
Source text: as §6

## CC[C@H](C)[C@H](NC(=O)[C@@H]1CCCN1C(=O)[C@H](CCC(=O)O)NC(=O)[C@@H]1CSSC[C@@H]2NC(=O)[C@H](Cc3c[nH]cn3)NC(=O)[C@H](CCC(=O)O)NC(=O)[C@@H]3CCCN3C(=O)[C@@H]3CSSC[C@H](NC(=O)[C@H](CCCCN)NC(=O)[C@H](CC(=O)O)NC(=O)[C@H](CC(N)=O)NC(=O)[C@H](CC(=O)O)NC(=O)[C@H](CSSC[C@H](NC(=O)[C@H](CO)NC(=O)[C@@H](N)C(C)C)C(=O)N[C@@H](CCC(=O)O)C(=O)N[C@@H](CC(=O)O)C(=O)N3)NC(=O)[C@H](CCCCN)NC(=O)[C@H](C)NC(=O)[C@H](CCC(N)=O)NC(=O)[C@H](C)NC(=O)[C@H](CCCCN)NC(=O)[C@H](CCC(N)=O)NC(=O)[C@H]([C@@H](C)O)NC(=O)[C@H](CO)NC2=O)C(=O)N[C@@H](C(C)C)C(=O)N1)C(=O)O [P01] (H-VSCEDCPEHCSTQKAQAKCDNDKCVCEPI-OH; disulfide 3-19, 6-24, 10-26 (inferred); N-terminus and C-terminus assumed)
U87 glioblastoma cells [1]
  cytotoxic effect (cell viability): did not have a cytotoxic effect
[2]
  cytotoxic effect (cell viability): did not have a cytotoxic effect
[3]
  cytotoxic effect (cell viability): did not have a cytotoxic effect
[4]
  effect on cell proliferation: no effect
U87 glioblastoma cells [5]; 50 μg/mL, 5 h at 37°C, fibrinogen 50 μg/mL coating, n = 3
  inhibition of migration: 48%
U87 glioblastoma cells [5]; Boyden chamber, 5 h
  IC50 (migration): 50 µg/mL (≈ 15.7 µM)
[6]
  effect on migration: no effect
[7]
  effect on migration: no effect
[8]
  effect on adhesion: not affected
[9]
  effect on adhesion: not affected
αvβ3 integrin
  effect on adhesive function of αvβ3: reduced the adhesive function
α5 integrin
  effect on adhesive function of α5: reduced the adhesive function
β3 integrin
  effect on cell adhesion through β3: not able to alter cell adhesion
SK2 channel
  blocking activity on SK2: little or no blocking activity
SK3 channel
  blocking activity on SK3: little or no blocking activity

— paper PMC10326281, “Insights into the mechanisms governing P01 scorpion toxin effect against U87 glioblastoma cells oncogenesis” (Frontiers in Pharmacology, 2023)
